Assay results taken from patent publication US20040176361A1, “Fused heterocyclic compound and medicinal use thereof” (priority 2001, published 2004).

With `Cc1cccc2c(=O)[nH]c(CC3CN4CCC3CC4)nc12` (stereo not shown) the melting point was 187 to 188 °C (dec.). In the case of `CC1CN(c2cc3ccccc3c(=O)[nH]2)CCN1` (stereo not shown), the melting point is reported as 164 to 167 °C. With `CC1CN(c2cc3ccccc3c(=O)[nH]2)CC(C)N1` (stereo not shown) the melting point was 208 to 210 °C. In the case of `CN1CCC(c2cc3ncccc3c(=O)[nH]2)CC1`, the melting point is reported as > 240 °C (dec.). With `Cc1c(C2CCN(C)CC2)[nH]c(=O)c2ccccc12` the melting point was 202 to 204 °C. Molecule `CN1CCCC(c2cc3ccccc3c(=O)[nH]2)C1` (stereo not shown) has a melting point of 155 to 156 °C. For `Cc1ccc2c(=O)[nH]c(C3CCN(C)CC3)cc2c1`, the melting point was 236 to 238 °C. `Cc1ccc2cc(C3CCN(C)CC3)[nH]c(=O)c2c1` showed a melting point of 239 to 241 °C. For `Cc1cccc2cc(C3CCN(C)CC3)[nH]c(=O)c12`, the melting point was 200 to 202 °C. Molecule `CN1CCC(c2cc3ccc(O)cc3c(=O)[nH]2)CC1.Cl` has a melting point of 284 to 286 °C. With `Cc1ccc2c(=O)[nH]c(N3CCN(C)CC3)cc2c1` the melting point was 242 to 243 °C (dec.). In the case of `Cc1cccc2cc(N3CCN(C)CC3)[nH]c(=O)c12`, the melting point is reported as 224 to 225 °C (dec.). For `Br.O=c1[nH]c(C2CCNCC2)cc2ccccc12`, the melting point was > 270 °C. In the case of `Br.O=c1[nH]c(C2CCNCC2)c(-c2ccccc2)c2ccccc12`, the melting point is reported as > 270 °C. For `CN(C)C1CCN(c2cc3ccccc3c(=O)[nH]2)C1` (stereo not shown) [Example 2, 3-(3-dimethylaminopyrrolidine-1-yl)-2H-isoquinolin-1-one], the melting point was 233 to 234 °C (dec.). With `CCCN1CCN(c2cc3ccccc3c(=O)[nH]2)CC1` [Example 7, 3-(4-propylpiperazine-1-yl)-2H-isoquinolin-1-one] the melting point was 208 to 209 °C (dec.). In the case of `CS(=O)(=O)N1CCN(c2cc3ccccc3c(=O)[nH]2)CC1` [Example 8, 3-(4-methanesulfonylpiperazin-1-yl)-2H-isoquinolin-1-one], the melting point is reported as 257 to 259 °C (dec.). With `CCOC(=O)N1CCN(c2cc3ccccc3c(=O)[nH]2)CC1` [Example 9, 3-(4-ethoxycarbonylpiperazin-1-yl)-2H-isoquinolin-1-one] the melting point was 191 to 192 °C (dec.). With `CN1CCCN(c2cc3ccccc3c(=O)[nH]2)CC1` [Example 10, 3-(4-methylhomopiperazin-1-yl)-2H-isoquinolin-1-one] the melting point was 171 to 172 °C (dec.). For `CN(C)C1CCN(c2cc3ccc(Br)cc3c(=O)[nH]2)CC1` [Example 31, 7-bromo-3-(4-dimethylaminopiperidin-1-yl)-2H-isoquinolin-1-one], the melting point was 227 to 228 °C (dec.). For `CN(C)C1CCN(c2cc3c(Br)cccc3c(=O)[nH]2)CC1` [Example 32, 5-bromo-3-(4-dimethylaminopiperidin-1-yl)-2H-isoquinolin-1-one], the melting point was 214 to 215 °C (dec.). With `O=c1[nH]c(N2CCN(CCO)CC2)cc2c(F)cccc12` [Example 33, 5-fluoro-3-(4-(2-hydroxyethyl)piperazin-1-yl)-2H-isoquinolin-1-one] the melting point was 207 to 208 °C (dec.). With `Cc1ccc2c(=O)[nH]c(N3CCN(CCO)CC3)cc2c1` [Example 35, 3-(4-(2-hydroxyethyl)piperazin-1-yl)-6-methyl-2H-isoquinolin-1-one] the melting point was 236 to 237 °C (dec.). For `Cc1cccc2cc(N3CCN(CCO)CC3)[nH]c(=O)c12` [Example 41, 3-[4-(2-hydroxyethyl)piperazin-1-yl]-8-methyl-2H-isoquinolin-1-one], the melting point was 209 to 210 °C (dec.). For `Cc1cccc2c(=O)[nH]c(N3CCN(CCCCN4CCN(C)CC4)CC3)cc12` [Example 75, 5-methyl-3-(4-(4-(4-methylpiperazin-1-yl)butyl)piperazin-1-yl)-2H-isoquinolin-1-one], the melting point was 202 to 203 °C (dec.). In the case of `O=c1[nH]c(N2CCN(CCCCN3CCCCC3)CC2)cc2ccc(Br)cc12` [Example 76, 7-bromo-3-{4-[4-(piperidin-1-yl)butyl]piperazin-1-yl}-2H-isoquinolin-1-one], the melting point is reported as 211 to 212 °C (dec.). With `O=c1[nH]c(N2CCN(CCCCN3CCCCC3)CC2)cc2c(Cl)cccc12` [Example 77, 5-chloro-3-{4-[4-(piperidin-1-yl)butyl]piperazin-1-yl}-2H-isoquinolin-1-one] the melting point was 172 to 173 °C (dec.). In the case of `O=c1[nH]c(N2CCN(CCCCN3CCCCC3)CC2)cc2c(Br)cccc12` [Example 78, 5-bromo-3-{4-[4-(piperidin-1-yl)butyl]piperazin-1-yl}-2H-isoquinolin-1-one], the melting point is reported as 165 to 166 °C (dec.). `CN1CCN(C(=O)c2cc3ccccc3c(=O)[nH]2)CC1` [Example 83, 3-((4-methylpiperazin-1-yl)carbonyl)-2H-isoquinolin-1-one] showed a melting point of 170 to 172 °C. For `COc1ccc(-c2c(C3CCN(C)CC3)[nH]c(=O)c3ccccc23)cc1` [Example 99, 4-(4-methoxyphenyl)-3-(1-methylpiperidin-4-yl)-2H-isoquinolin-1-one], the melting point was 209 to 211 °C. Molecule `CN1CCC(c2[nH]c(=O)c3ccccc3c2-c2ccc(Cl)cc2)CC1` [Example 100, 4-(4-chlorophenyl)-3-(1-methylpiperidin-4-yl)-2H-isoquinolin-1-one] has a melting point of 254 to 256 °C. In the case of `CN1CCN(N2CC(=O)c3c(ccc4ccccc34)C2)CC1` [Example 114, 3-(4-methylpiperazin-1-yl)-2H-benz[f]isoquinolin-1-one], the melting point is reported as 253 to 254 °C (dec.). For `CN(C)C1CCN(N2CC(=O)c3c(ccc4ccccc34)C2)CC1` [Example 115, 3-(4-dimethylaminopiperidin-1-yl)-2H-benz[f]isoquinolin-1-one], the melting point was 232 to 233 °C (dec.). For `Cc1cccc2c(=O)[nH]c(C3CCC(N(C)C)CC3)nc12` (stereo not shown) [Example 137, 8-methyl-2-(4-dimethylaminocyclohexan-1-yl)-3H-quinazolin-4-one], the melting point was 181 to 183 °C (dec.). `CN(C)C1CCC(c2cc3ccccc3c(=O)[nH]2)CC1` (stereo not shown) [Example 147, 3-(4-(dimethylamino)cyclohexan-1-yl)-2H-isoquinolin-1-one] showed a melting point of 256 to 258 °C. With `CN1CCN(CCCc2cc3ccccc3c(=O)[nH]2)CC1` [Example 148, 3-(3-(4-methylpiperazin-1-yl)propyl)-2H-isoquinolin-1-one] the melting point was 120 to 122 °C. With `CN1CCN(c2cc3ccccc3c(=O)[nH]2)[C@@H](CO)C1` [Example 151, (R)-3-(2-hydroxymethyl-4-methylpiperazin-1-yl)-2H-isoquinolin-1-one] the melting point was 172 to 174 °C. In the case of `CN1CCN(c2cc3ccccc3c(=O)[nH]2)[C@H](CO)C1` [Example 152, (S)-3-(2-hydroxymethyl-4-methylpiperazin-1-yl)-2H-isoquinolin-1-one], the melting point is reported as 169 to 171 °C. Molecule `CCOC(=O)C1CN(c2cc3ccccc3c(=O)[nH]2)CCN1C` (stereo not shown) [Example 154, 3-(3-ethoxycarbonyl-4-methylpiperazin-1-yl)-2H-isoquinolin-1-one] has a melting point of 105 to 109 °C. With `CN1CCC(C2Cc3ccccc3C(=O)N2)CC1` (stereo not shown) [Example 158, 3-(1-methylpiperidin-4-yl)-3,4-dihydro-2H-isoquinolin-1-one] the melting point was 139 to 141 °C. For `Cc1ccc(-c2c(C3CCN(C)CC3)[nH]c(=O)c3ccccc23)cc1` [Example 163, 4-(4-methylphenyl)-3-(1-methylpiperidin-4-yl)-2H-isoquinolin-1-one], the melting point was 244 to 246 °C. With `CN1CCC(c2[nH]c(=O)c3ccccc3c2-c2ccc(F)cc2)CC1` [Example 164, 4-(4-fluorophenyl)-3-(1-methylpiperidin-4-yl)-2H-isoquinolin-1-one] the melting point was 269 to 271 °C. In the case of `COc1ccccc1-c1c(C2CCN(C)CC2)[nH]c(=O)c2ccccc12` [Example 167, 4-(2-methoxyphenyl)-3-(1-methylpiperidin-4-yl)-2H-isoquinolin-1-one], the melting point is reported as 153 to 155 °C. Work on `Cc1cccc(-c2c(C3CCN(C)CC3)[nH]c(=O)c3ccccc23)c1` [Example 168, 4-(3-methylphenyl)-3-(1-methylpiperidin-4-yl)-2H-isoquinolin-1-one] yielded a melting point of 214 to 216 °C. Work on `Cc1ccccc1-c1c(C2CCN(C)CC2)[nH]c(=O)c2ccccc12` [Example 169, 4-(2-methylphenyl)-3-(1-methylpiperidin-4-yl)-2H-isoquinolin-1-one] yielded a melting point of 249 to 251 °C. `COc1cccc(-c2c(C3CCN(C)CC3)[nH]c(=O)c3ccccc23)c1` [Example 170, 4-(3-methoxyphenyl)-3-(1-methylpiperidin-4-yl)-2H-isoquinolin-1-one] gave a melting point of 181 to 183 °C. With `COCOc1cccc2c(=O)[nH]c(C3CCN(C)CC3)cc12` [Example 171, 5-methoxymethyloxy-3-(1-methylpiperidin-4-yl)-2H-isoquinolin-1-one] the melting point was 194 to 196 °C. With `CN1CCC(c2cc3c(N(C)C)cccc3c(=O)[nH]2)CC1` [Example 180, 5-(dimethylamino)-3-(1-methylpiperidin-4-yl)-2H-isoquinolin-1-one] the melting point was 216 to 218 °C. For `CN1CCC(c2[nH]c(=O)c3ccccc3c2-c2ccccc2F)CC1` [Example 182, 4-(2-fluorophenyl)-3-(1-methylpiperidin-4-yl)-2H-isoquinolin-1-one], the melting point was 247 to 249 °C. Work on `COCOc1cccc2c(=O)[nH]c(CCCN(C)C)cc12` [Example 185, 5-methoxymethyloxy-3-(3-dimethylaminopropyl)-2H-isoquinolin-1-one] yielded a melting point of 110 to 112 °C. Molecule `COCOc1cccc2c(=O)[nH]c(CCCCN(C)C)cc12` [Example 187, 5-methoxymethyloxy-3-(4-dimethylaminobutyl)-2H-isoquinolin-1-one] has a melting point of 109 to 111 °C. Work on `O=c1[nH]c(C2CCCN(Cc3ccccc3)C2)cc2ccccc12` (stereo not shown) [Example 191, 3-(1-benzylpiperidin-3-yl)-2H-isoquinolin-1-one] yielded a melting point of 176 to 178 °C. `CN1CCC=C(c2cc3ccccc3c(=O)[nH]2)C1` [Example 193, 3-(1-methyl-1,2,3,6-tetrahydropyridin-5-yl)-2H-isoquinolin-1-one] showed a melting point of 214 to 216 °C. With `O=c1[nH]c(N2CCNC(CO)C2)cc2ccccc12` (stereo not shown) [Example 194, 3-(3-hydroxymethylpiperazin-1-yl)-2H-isoquinolin-1-one] the melting point was > 120 °C (dec.). `CCCN1CCN(c2cc3ccccc3c(=O)[nH]2)CC1CO` (stereo not shown) [Example 196, 3-(3-hydroxymethyl-4-propylpiperazin-1-yl)-2H-isoquinolin-1-one] gave a melting point of 152 to 154 °C.
